# What was measured:
# Jurkat cells [1] = settings: for Effect of Ca2+ channel inhibitor on cell death induced by 4 / Effect of Ca2+ channel inhibitor on cell death induced by celastrol: inhibitor 1 h (2-APB 50 μM, RuRed 10 μM, ER-000444793 10 μM); for Effect of Ca2+ channel inhibitor on cell death induced by 4: then 4 5 μM 3 h, microscopy and MTT; for Effect of Ca2+ channel inhibitor on cell death induced by celastrol: then celastrol 1 μM 12 h; for Effect of Ca2+ channel inhibitor on cell death induced by celastrol / Effect of PCD inhibitor on cell death induced by CGP37157 / Effect of GTPase inhibitor on cytotoxicity by 4 / Effect of GTPase inhibitor on cytotoxicity by CGP37157: MTT; for Effect of PCD inhibitor on cell death induced by CGP37157: Z-VAD-fmk 30 μM, Nec-1 30 μM, 3-MA 5 mM, CGP37157 100 µM, 12 h, three independent experiments; for Effect of GTPase inhibitor on cytotoxicity by 4 / Effect of GTPase inhibitor on cytotoxicity by CGP37157: inhibitor 1 h (dynasore, Mdivi-1 10–30 μM, CID1067700 1–10 μM); for Effect of GTPase inhibitor on cytotoxicity by 4: then 4 5 μM 1 or 3 h; for Effect of GTPase inhibitor on cytotoxicity by CGP37157: then CGP37157 100 μM 12 h
# [2] = tested on: dynamin-related protein 1 (DRP1); test: Western blot analysis of DRP1 in Jurkat cells; format: cell-based; settings: for DRP1 band intensity relative to absence of compound: Figure S8C, 24 h
# Method: (§1) In a 1.5 mL Eppendorf tube, Jurkat cells (1.0 × 10^6 cells) were incubated in the presence of 4 ([…]), CGP37157 (100 μM for 0–24 h or 0–100 μM for 12 h), and celastrol (0–10 μM for 24 h or 1 μM for 0–24 h) at 37 °C under 5% CO2. After the cells had been washed twice with PBS, the proteins were extracted by using RIPA buffer (Nacalai Tesque) and quantified using a Pierce BCA Protein Assay Kit (Thermo Scientific). Proteins (7.5 μg/well) for MFNs and DRP1 and proteins (5.0 μg/well) for GAPDH were used for sodium dodecyl sulfate–polyacrylamide gel electrophoresis (SDS–PAGE) (7.5% for MFNs and DRP1 and 10% for GAPDH) (Bio-Rad). After SDS–PAGE, the proteins were transferred to a polyvinylidene fluoride membrane (Merck Millipore) by using a semi dry blotter (Bio-Rad). The membrane was blocked with Blocking One solution (Nacalai Tesque) for 30 min at room temperature. After being blocked, the membrane was washed three times with 1× TBST and treated with primary antibodies overnight (at a dilution of 1/1000 for MFNs and DRP1 or 1/2000 for GAPDH) in a signal enhancer HIKARI-solution A (Nacalai Tesque). The membrane was washed three times with 1× TBST and treated with the anti-mouse or anti-rabbit IgG HRP-conjugated secondary antibody (at a dilution of 1/4000 for MFNs and DRP1 or 1/10000 for GAPDH) in 1× TBST for 60 min at room temperature. The protein signal was spotted with a Chemi-Lumi One Ultra solution (Nacalai Tesque) using the ChemiDoc MP system (Bio-Rad).
# Jurkat cells [3] = test: TEM analysis of cytoplasmic vacuolization; format: cell-based; settings: celastrol 1 μM, 24 h
# Method: The morphological changes in Jurkat cells induced by CGP37157 (Figure 3B) were similar to those induced by 4 (Figure 1B) and confirmed in detail by TEM (transmission electron microscopy). Jurkat cells were treated with CGP37157 (100 μM) for 12 h, prefixed with glutaraldehyde and postfixed with osmium tetroxide (OsO4), and included in Poly 812 resin. The resulting samples were sliced and then observed by TEM. […] Similar TEM images were reported with respect to paraptosis-inducing natural compounds by some research groups: (i) paraptosis in MDA-MB 435S cells,[17] HeLa cells,[18] and Jurkat cells (Figure 4d and in our previous publications)[56]−[58] induced by celastrol, (ii) paraptosis in HeLa cells induced by 8-p-hydroxybenzoyl tovarol,[23] and (iii) paraptosis in A2780 cells and SKOV-3 cells induced by morusin.[22] Therefore, we believe that Jurkat cells undergo vacuolization in the paraptotic processes induced by 4 and CGP37157, as well as celastrol.
# In a 1.5 mL Eppendorf tube, Jurkat cells (3.0 × 10^6 cells) were incubated with 4 (5 μM for 3 h), CGP37157 (100 μM for 12 h), and celastrol (1 μM for 24 h) in 10% FBS/RPMI 1640 medium at 37 °C under 5% CO2. After centrifugation (2000 rpm, 3 min, 4 °C), the cells were washed twice with PBS, prefixed with glutaraldehyde (2.5%) at 4 °C for 40 min, and then washed twice with PBS. Osmium tetroxide (1%) was used for postfixation, and the solution was incubated at 4 °C for 30 min. The cells were washed with PBS, included in an agarose gel, and dehydrated by using 50–100% and anhydrous EtOH. The cells were embedded into Poly 812 resin (Nisshin EM Co. Ltd.) at 60 °C for 3 days. The resin was sliced with a glass knife (150 nm thickness) on an ultramicrotome (EM UC6, Leica), and the samples were stained with EM stainer (Nisshin EM Co. Ltd.) and observed on TEM instrument (H-7650, Hitachi) with electron irradiation at 100 kV.
# mitofusin 2 (MFN2) = test: Western blot analysis of MFN2 in Jurkat cells; format: cell-based; settings: for MFN2 band intensity relative to absence of compound: Figure S8C, 24 h
# Method: as §1, with “system (Bio-Rad). […]” for “system (Bio-Rad).”
# mitofusin 1 (MFN1) = test: Western blot analysis of MFN1 in Jurkat cells; format: cell-based; settings: for MFN1 band intensity relative to absence of compound: Figure S8C, 24 h
# Method: as §1, with “system (Bio-Rad). […]” for “system (Bio-Rad).”
# [4] = tested on: MFN1- and/or MFN2-KD Jurkat cells; test: MTT assay of MFN1- and/or MFN2-KD Jurkat cells; format: cell-based; settings: siRNA 10 nM, celastrol 1 µM, 12 h, three independent experiments
# Method: The roles of MFNs in the cell death induced by 4 and CGP37157 were examined by using small interfering RNA (siRNA) for MFN1 and MFN2 to knock down (KD) these proteins. […] The cytotoxicity of 4 and CGP37157 against MFN1- and/or MFN2-KD Jurkat cells was evaluated by MTT assays. […] The effect of a negative control siRNA (NCsiRNA) on the expression levels of MFNs and the cell viability of Jurkat cells was negligible, implying that MFNs are […] to the paraptosis induced by 4 and CGP37157. It should be noted that the treatment with siRNA at 5 nM for 72 h was toxic against Jurkat cells in the presence of 4 and CGP37157, although the efficiency of knockdown of these proteins by siRNA could be improved by increasing the incubation time, as shown in Figure S11.
# To a solution of transfection reagent (INTERFERin, 5 μL) in OPTI-MEM (0.3 mL) in a 1.5 mL Eppendorf tube was added siRNA (10 μM, 1 or 2 μL) in H2O, and the resulting solution was allowed to stand for 15 min at room temperature. The resulting solution was then added to Jurkat cells (2.0 × 10^5 cells/mL, 1.5 mL) in 10% FBS/RPMI 1640 medium that had been seeded on a 12-well plate and incubated overnight at 37 °C under 5% CO2 (the final concentration of siRNA was 5 or 10 nM), and the resulting solution was incubated for 48 or 72 h at 37 °C under 5% CO2. The cells were collected by centrifugation (2000 rpm, 3 min, 4 °C), and the expression levels of MFNs were evaluated by Western blot analysis as described above. The cytotoxicity of 4 (3 or 5 μM), CGP37157 (50 or 100 μM), and celastrol (1 μM) against MFNs-KD Jurkat cells was evaluated by MTT assays as described above.
# Jurkat cells [5] = test: Mitochondria-ER membrane fusion, co-staining with MitoTracker Green and ER-Tracker Red; format: cell-based; settings: celastrol 1 μM, 12 h
# Method: To verify this hypothesis, mitochondria and the ER were stained with both MitoTracker Green and ER-Tracker Red in the presence of 4, CGP37157, and celastrol (Figure 8). Jurkat cells were stained with MitoTracker Green (0.5 μM) and ER-Tracker Red (1 μM) and then treated with 4 (5 μM) for 10–30 min (time-dependent microscopic images are presented in Figure S5). […] With regard to CGP37157 and celastrol, Jurkat cells were stained with MitoTracker Green (0.5 μM) and ER-Tracker Red (1 μM) and then treated with CGP37157 (100 μM) and celastrol (1 μM) for 1–24 h (Figure 8 and Figure S5).
# In a 1.5 mL Eppendorf tube, Jurkat cells (2.0 × 10^5 cells) were stained with MitoTracker Green (0.5 μM) for 1 h at 37 °C under 5% CO2 and then ER-Tracker Red (1 μM) for 1 h at 37 °C under 5% CO2 in 10% FBS/RPMI 1640 medium (100 μL). After being washed with PBS, the cells were treated with 4 (5 μM) in 10% FBS/RPMI 1640 medium (100 μL) for 0–30 min at 37 °C under 5% CO2. For CGP37157 and celastrol, Jurkat cells were treated with CGP37157 (100 μM) or celastrol (1 μM) in 10% FBS/RPMI 1640 medium (100 μL) for 0–24 h, after which the cells were stained with MitoTracker Green (0.5 μM) for 1 h at 37 °C under 5% CO2 and then ER-Tracker Red (1 μM) for 1 h at 37 °C under 5% CO2 in PBS. The cells were washed with PBS and observed by confocal microscopy (Fluoview, FV-1000, Olympus) using a Greiner CELLview dish (35 mm × 10 mm). Excitation at 473 nm and emission from 485 to 545 nm were used for MitoTracker Green. Excitation at 559 nm and emission from 570 to 620 nm were used for ER-Tracker Red. The exposure time was 20 μs/pixel.
# [6] = celastrol 1 μM 0–24 h or 0–10 μM 24 h
molecule,measurement,setting,value
"NCCOB(c1ccccc1)c1ccccc1 [2-APB, 2-Aminoethoxydiphenyl borate]",Effect of Ca2+ channel inhibitor on cell death induced by 4,Jurkat cells [1],negligible inhibitory effects
same,Effect of Ca2+ channel inhibitor on cell death induced by celastrol,Jurkat cells [1],negligible inhibitory effects
Cn1cnc(N)c2ncnc1-2 [3-methyladenine],Effect of PCD inhibitor on cell death induced by CGP37157,Jurkat cells [1],negligible inhibition
CC1(C)Cc2c(sc(NC(=S)NC(=O)c3ccccc3)c2C(=O)O)CO1 [CID1067700],Effect of GTPase inhibitor on cytotoxicity by 4,Jurkat cells [1],negligible effect
same,Effect of GTPase inhibitor on cytotoxicity by CGP37157,Jurkat cells [1],negligible effect
O=C(Nc1ccccc1Cc1ccccc1)c1cc(=O)[nH]c2ccccc12 [ER-000444793],Effect of Ca2+ channel inhibitor on cell death induced by 4,Jurkat cells [1],negligible inhibitory effects
same,Effect of Ca2+ channel inhibitor on cell death induced by celastrol,Jurkat cells [1],negligible inhibitory effects
COc1cc(-n2c(=S)[nH]c3ccccc3c2=O)c(Cl)cc1Cl [Mdivi-1],Effect of GTPase inhibitor on cytotoxicity by 4,Jurkat cells [1],negligible effect
same,Effect of GTPase inhibitor on cytotoxicity by CGP37157,Jurkat cells [1],negligible effect
"N.N.N.N.N.N.N.N.N.N.N.N.N.N.[Cl-].[Cl-].[Cl-].[Cl-].[Cl-].[Cl-].[O-2].[O-2].[Ru+3].[Ru+3].[Ru+4] [RuRed, ruthenium red]",Effect of Ca2+ channel inhibitor on cell death induced by 4,Jurkat cells [1],negligible inhibitory effects
same,Effect of Ca2+ channel inhibitor on cell death induced by celastrol,Jurkat cells [1],negligible inhibitory effects
CC1=C(O)C(=O)C=C2C1=CC=C1[C@@]2(C)CC[C@@]2(C)[C@@H]3C[C@](C)(C(=O)O)CC[C@]3(C)CC[C@]12C [celastrol],DRP1 band intensity relative to absence of compound,[2]; celastrol 1 µM,0.92
same,DRP1 band intensity relative to absence of compound,[2]; celastrol 2 µM,0.81
same,DRP1 band intensity relative to absence of compound,[2]; celastrol 5 µM,0.44
same,DRP1 band intensity relative to absence of compound,[2]; celastrol 8 µM,0.20
same,DRP1 band intensity relative to absence of compound,[2]; celastrol 10 µM,0.19
same,"Expression level of DRP1 (Figure 11C, S8C)",[2]; [6],decreased
same,Morphological change by TEM,Jurkat cells [3],cytoplasmic vacuolization
same,MFN2 band intensity relative to absence of compound,mitofusin 2 (MFN2); celastrol 1 µM,0.29
same,MFN2 band intensity relative to absence of compound,mitofusin 2 (MFN2); celastrol 2 µM,0.21
same,MFN2 band intensity relative to absence of compound,mitofusin 2 (MFN2); celastrol 5 µM,0.21
same,MFN2 band intensity relative to absence of compound,mitofusin 2 (MFN2); celastrol 8 µM,0.22
same,MFN2 band intensity relative to absence of compound,mitofusin 2 (MFN2); celastrol 10 µM,0.15
same,"Expression level of MFN2 (Figure 11C, S8C)",mitofusin 2 (MFN2); [6],decreased
same,MFN1 band intensity relative to absence of compound,mitofusin 1 (MFN1); celastrol 1 µM,0.56
same,MFN1 band intensity relative to absence of compound,mitofusin 1 (MFN1); celastrol 2 µM,0.51
same,MFN1 band intensity relative to absence of compound,mitofusin 1 (MFN1); celastrol 5 µM,0.45
same,MFN1 band intensity relative to absence of compound,mitofusin 1 (MFN1); celastrol 8 µM,0.43
same,MFN1 band intensity relative to absence of compound,mitofusin 1 (MFN1); celastrol 10 µM,0.37
same,"Expression level of MFN1 (Figure 11C, S8C)",mitofusin 1 (MFN1); [6],decreased
same,Effect of knockdown of MFNs on cell death induced by the compound,[4],negligible effect
same,Overlap of MitoTracker Green and ER-Tracker Red emission (mitochondria-ER membrane fusion),Jurkat cells [5],negligible
CN1C(=O)C(Cc2c[nH]c3ccccc23)NC1=S (stereo not shown) [necrostatin-1],Effect of PCD inhibitor on cell death induced by CGP37157,Jurkat cells [1],negligible inhibition
Benzyloxycarbonyl-Val-Ala-Asp(OMe) fluoromethylketone [Z-VAD-fmk],Effect of PCD inhibitor on cell death induced by CGP37157,Jurkat cells [1],weakly inhibited
